Source: ChEMBL document CHEMBL1128169, “Thiourea analogues of resiniferatoxin as ligands for the vanilloid receptor” (Bioorg Med Chem Lett, 1995)

Each compound was assayed against Transient receptor potential cation channel subfamily V member 1 (Homo sapiens, UniProt Q8NER1) (assay: Displacement of [3H]RTX binding from vanilloid receptor).
Transient receptor potential cation channel subfamily V member 1, sequence (Q8NER1 whole entry): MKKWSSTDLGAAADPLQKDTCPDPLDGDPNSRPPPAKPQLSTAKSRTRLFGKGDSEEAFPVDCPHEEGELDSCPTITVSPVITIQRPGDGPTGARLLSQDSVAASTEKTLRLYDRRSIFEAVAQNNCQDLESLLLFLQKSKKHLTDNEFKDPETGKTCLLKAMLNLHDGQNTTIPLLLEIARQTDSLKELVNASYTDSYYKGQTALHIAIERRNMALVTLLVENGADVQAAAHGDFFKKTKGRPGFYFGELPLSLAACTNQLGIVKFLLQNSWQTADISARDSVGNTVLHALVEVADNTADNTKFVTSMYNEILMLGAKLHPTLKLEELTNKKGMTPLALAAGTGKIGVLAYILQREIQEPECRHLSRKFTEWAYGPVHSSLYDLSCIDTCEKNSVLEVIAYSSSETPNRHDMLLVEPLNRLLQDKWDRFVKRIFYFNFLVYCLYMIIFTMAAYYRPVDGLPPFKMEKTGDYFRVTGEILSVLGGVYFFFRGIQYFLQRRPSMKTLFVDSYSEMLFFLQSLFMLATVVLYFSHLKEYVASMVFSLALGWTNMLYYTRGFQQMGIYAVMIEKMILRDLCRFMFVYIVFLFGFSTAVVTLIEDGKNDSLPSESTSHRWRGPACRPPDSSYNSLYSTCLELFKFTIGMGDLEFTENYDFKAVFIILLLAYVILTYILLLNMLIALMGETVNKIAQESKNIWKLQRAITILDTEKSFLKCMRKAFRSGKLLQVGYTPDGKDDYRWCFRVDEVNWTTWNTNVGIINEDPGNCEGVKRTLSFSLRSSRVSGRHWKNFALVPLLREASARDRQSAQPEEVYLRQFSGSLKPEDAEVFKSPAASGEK
C=C(C)[C@]12C[C@@H](C)[C@@]34OC(Cc5ccccc5)(O[C@@H]1[C@@H]3C=C(CNC(=S)NCc1ccc(O)c(OC)c1)C[C@]1(O)C(=O)C(C)=C[C@@H]41)O2 gave a Ki of 0.149 µM. C=C(C)[C@]12C[C@@H](C)[C@@]34OC(Cc5ccccc5)(O[C@@H]1[C@@H]3C=C(C/N=C(\S)Nc1ccc(O)c(OC)c1)C[C@]1(O)C(=O)C(C)=C[C@@H]41)O2 gave a Ki of 0.0661 µM. C=C(C)[C@]12C[C@@H](C)[C@@]34O[C@](Cc5ccccc5)(O[C@@H]1[C@@H]3C=C(COC(=O)Cc1ccc(O)c(OC)c1)C[C@]1(O)C(=O)C(C)=CC41)O2 (single isomer, unassigned) [RESINIFERATOXIN] was tested, and the Ki was 0.0231 µM.
